Experimental data from ChEMBL document CHEMBL1275552, “In vitro activities at pH 5.0 and pH 7.0 and in vivo efficacy of flucytosine against Aspergillus fumigatus” (Antimicrob Agents Chemother, 2008).
Converted amounts (≈) assume the structure as drawn. The source made the active and inactive calls. The calls are words filed in the database; no cut-off is given here.

Key:
[1] = tested on: Aspergillus fumigatus; assay: Antifungal activity against flucytosine-resistant Aspergillus fumigatus isolate AZN 58 infected in CD-1 mouse at 200 mg/kg administered every 6 hrs; format: functional, organism-based; design: dose 200 mg/kg
[2] = Half life in human; format: ADME, organism-based; conditions: in vivo
[3] = tested on: Aspergillus sp.; assay: Antifungal activity against Aspergillus sp. by broth microdilution method; format: functional
[4] = tested on: Aspergillus fumigatus; assay: Antifungal activity against flucytosine-resistant Aspergillus fumigatus isolate AZN 58 infected in CD-1 mouse at 200 mg/kg administered every 12 hrs; format: functional, organism-based; design: dose 200 mg/kg
[5] = Half life in CD-1 mouse at 800 mg/kg; format: ADME, organism-based; design: dose 800 mg/kg; conditions: in vivo
[6] = tested on: Aspergillus fumigatus; assay: Antifungal activity against flucytosine-susceptible Aspergillus fumigatus isolate AZN 58 infected in CD-1 mouse assessed as prolongation of survival at 200 mg/kg administered every 12 hrs; format: functional, organism-based; design: dose 200 mg/kg
[7] = tested on: Aspergillus fumigatus; assay: Antifungal activity against Aspergillus fumigatus at pH 7.0 by broth microdilution method; format: functional
[8] = tested on: Aspergillus fumigatus; assay: Antifungal activity against flucytosine-resistant Aspergillus fumigatus isolate AZN 58 infected in CD-1 mouse at 100 mg/kg administered every 12 hrs; format: functional, organism-based; design: dose 100 mg/kg
[9] = tested on: Aspergillus fumigatus; assay: Antifungal activity against flucytosine-resistant Aspergillus fumigatus isolate AZN 58 infected in CD-1 mouse at 100 mg/kg administered every 6 hrs; format: functional, organism-based; design: dose 100 mg/kg
[10] = tested on: Aspergillus fumigatus; assay: Antifungal activity against flucytosine-susceptible Aspergillus fumigatus isolate AZN 58 infected in CD-1 mouse assessed as prolongation of survival at 200 mg/kg administered every 6 hrs; format: functional, organism-based; design: dose 200 mg/kg
[11] = tested on: Aspergillus fumigatus; assay: Antifungal activity against flucytosine-susceptible Aspergillus fumigatus isolate AZN 58 infected in CD-1 mouse assessed as prolongation of survival at 100 mg/kg administered every 6 hrs; format: functional, organism-based; design: dose 100 mg/kg
[12] = tested on: Aspergillus fumigatus; assay: Antifungal activity against Aspergillus fumigatus at pH 5.0 by broth microdilution method; format: functional
[13] = tested on: Aspergillus fumigatus; assay: Antifungal activity against flucytosine-susceptible Aspergillus fumigatus isolate AZN 58 infected in CD-1 mouse assessed as prolongation of survival at 100 mg/kg administered every 12 hrs; format: functional, organism-based; design: dose 100 mg/kg

Question: For Nc1nc(=O)[nH]cc1F [FLUCYTOSINE], which Activity [1] is on record?
Answer: inactive

Question: And the half-life [2]?
Answer: 2.5 h

Question: What about the MIC [3] of the same molecule?
Answer: > 64 µg/mL

Question: What about the Activity [4] of the same molecule?
Answer: inactive

Question: And the half-life [5]?
Answer: 0.5 h

Question: What about the Activity [6] of the same molecule?
Answer: Active

Question: What about the MIC [7] of the same molecule?
Answer: 128 µg/mL (≈ 992 µM)

Question: What about the Activity [8] of the same molecule?
Answer: inactive

Question: What about the Activity [9] of the same molecule?
Answer: inactive

Question: What about the Activity [10] of the same molecule?
Answer: Active

Question: And the Activity [11]?
Answer: Active

Question: What about the MIC [12] of the same molecule?
Answer: 0.125 µg/mL (≈ 0.968 µM)

Question: And the Activity [13]?
Answer: Active
